Assay [1] relates to SMN. The experiment in a line: SMN immunofluorescence quantification (cytoplasm, nucleus, GEMs) in fibroblasts from SMA patients. The assay is classed as cell-based, human. The note with it: SMA patient fibroblasts. An outline of the steps: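 SMN immunostained and imaged by automated confocal microscopy; per-cell cytoplasmic and nuclear SMN intensity and GEM number and intensity quantified. PFA fixation used for screening.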

Assay [2] concerns SMN1 and SMN2 transcripts. The experiment in a line: qRT-PCR of SMN1 and SMN2 transcripts after PDGF-BB. It counts as cell-based, human. The conditions noted are these: 50 ng/ml, over three days. The method, then:
Although there is much more known about growth factor specificity and downstream pathways that they activate, whether PDGF effect on SMN was mediated through the binding to the PDGFR was tested next. The SMN-increasing effects of PDGF were blocked by DMPQ and […], two small molecules inhibitors of the PDGF receptor (FIG. 21a). In addition PDGF neutralizing antibody titration were performed in the cells incubated with 20 ng/ml platelet-derived PDGF. Depending on the antibody concentration, gradient of SMN level decrease reaching 40% was observed (FIG. 21b). Moreover, as might be predicted, since there are appreciable levels of PDGF in the media serum in which the fibroblasts are normally maintained, simply adding PDGFR inhibitors DMPQ and AG-1296 to the media decreases the “basal” level of SMN in these cells down to 15-20%, (FIG. 22). […]
[…] was purified using Tri-Reagent (Sigma-Aldrich) protocol and quantified on the Nanodrop (Thermo Fisher Scientific). […] Synthesised cDNA was diluted 5 times and 1 μl of cDNA sample was PCR amplified using RT^2SYBR Green/ROX PCR Master Mix and primer assays for SMN1, SMN2, GAPDH (SABiosciences) genes on 7900HT Fast Real-Time PCR System (ABI). qPCR results were analyzed with RQ Manager Software (ABI) by […] quantification method.

“Also recorded” adds a separate entry of the source.

These results are taken from US20120010178A1, “METHODS AND COMPOUNDS FOR TREATMENT OF NEURODEGENERATIVE DISORDERS” (PRESIDENT AND FELLOWS OF HARVARD COLLEGE, priority 2008, published 2012).

PDGF-BB: human recombinant PDGF-BB: the “levels of cytoplasmic and nuclear SMN (in words)” value in assay [1] (substance alone) was “strongest activator of SMN; also recorded: most potent growth factor that elevated SMN protein levels”. Further, the “Avg. SMN fold increase” value in assay [1] (human PDGF isoforms) is recorded as 2-2.3 fold. Besides, in assay [2], the “level of SMN1 and SMN2 transcripts” value is “little or no increase in SMN transcripts”.
